Literature values as cited in US20220339103A1, “Lung-targeted corticosteroid treatment in viral respiratory disease, COVID-19 and ARDS (acute respiratory distress syndrome)” (Bodor Laboratories, Inc., priority 2021, published 2022).
Where two headings read alike, the source gives them in different places.

Tests used:
cotton pellet granuloma = details: for ED50, anti-inflammatory activity in the cotton pellet granuloma test: subcutaneous cotton pellet granuloma test
thymus = details: for TD50, thymolysis potency: subcutaneous cotton pellet granuloma test
intraocular pressure [1] = details: corneal transplant patients developing very high IOP
[2] = molecular target: T1, rat lung cytosol glucocorticoid receptors (Rattus norvegicus, UniProt P06536); details: compared with dexamethasone
T1 construct: from tissue; host or cells: rat lung cytosol
T1 sequence (P06536 1-795): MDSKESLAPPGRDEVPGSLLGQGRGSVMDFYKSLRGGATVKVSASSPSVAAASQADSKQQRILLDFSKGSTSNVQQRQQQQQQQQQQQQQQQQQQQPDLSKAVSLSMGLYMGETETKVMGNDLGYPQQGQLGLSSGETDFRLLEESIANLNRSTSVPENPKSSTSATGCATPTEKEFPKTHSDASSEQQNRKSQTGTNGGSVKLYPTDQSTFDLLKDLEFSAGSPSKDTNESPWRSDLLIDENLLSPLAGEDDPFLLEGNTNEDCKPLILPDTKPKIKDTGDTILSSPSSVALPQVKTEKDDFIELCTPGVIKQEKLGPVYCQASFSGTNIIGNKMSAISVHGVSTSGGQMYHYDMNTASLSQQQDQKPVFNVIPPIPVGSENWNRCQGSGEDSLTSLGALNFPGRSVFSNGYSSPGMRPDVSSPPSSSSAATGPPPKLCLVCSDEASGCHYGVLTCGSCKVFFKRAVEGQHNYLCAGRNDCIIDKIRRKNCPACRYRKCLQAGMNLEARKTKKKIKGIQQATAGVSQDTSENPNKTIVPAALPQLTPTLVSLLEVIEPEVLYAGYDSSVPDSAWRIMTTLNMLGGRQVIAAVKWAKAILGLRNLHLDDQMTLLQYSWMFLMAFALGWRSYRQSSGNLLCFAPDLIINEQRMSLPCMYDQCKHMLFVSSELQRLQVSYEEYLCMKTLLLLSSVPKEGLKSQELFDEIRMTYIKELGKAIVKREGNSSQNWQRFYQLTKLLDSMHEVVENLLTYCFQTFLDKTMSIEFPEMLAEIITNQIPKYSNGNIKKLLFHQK

[3] = system: seasonal allergic rhinitis (SAR) to grass pollen; details: nasal spray, 100-800 μg, 645 SAR patients, vs PLA, p<0.03
[4] = human vasoconstrictor studies
[5] = 0.2% ophthalmic suspension, 159 patients treated >1 yr
[6] = system: hypothalamic-pituitary axis; details: at any Loteprednol Etabonate use
Paraoxonase 1 = Paraoxonase 1 (Homo sapiens, UniProt P27169)
intraocular pressure [7] = details: long-term use, 28 days or longer; LE 0.2% or 0.5%, prednisolone acetate 1%
[8] = betamethasone 17α-valerate = 1.00

Sequence of Paraoxonase 1 (P27169 whole entry): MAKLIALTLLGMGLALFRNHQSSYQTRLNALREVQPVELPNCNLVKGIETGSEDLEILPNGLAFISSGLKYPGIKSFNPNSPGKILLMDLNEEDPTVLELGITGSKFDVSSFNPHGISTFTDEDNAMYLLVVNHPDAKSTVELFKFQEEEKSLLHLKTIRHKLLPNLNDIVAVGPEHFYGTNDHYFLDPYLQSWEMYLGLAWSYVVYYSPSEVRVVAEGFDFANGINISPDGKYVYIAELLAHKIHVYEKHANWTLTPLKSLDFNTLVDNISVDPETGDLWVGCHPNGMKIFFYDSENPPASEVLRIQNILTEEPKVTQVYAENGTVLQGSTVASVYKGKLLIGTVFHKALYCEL

Structure (SMILES) | Rel.pot., relative inflammatory effect compared to betamethasone (cotton pellet granuloma; [8]) | ED50, anti-inflammatory activity in the cotton pellet granuloma test (cotton pellet granuloma) [μg/pellet] | Rel.pot., relative timolysis effect (thymus; [8]) | TD50, thymolysis potency (thymus) | Rel.pot., relative timolysis effect (thymus; in vivo) | IOP after replacing prednisolone acetate with LE (intraocular pressure [1]) | corticosteroid receptor binding [2] | Rel.pot., relative inflammatory effect compared to betamethasone (cotton pellet granuloma; in vivo) | change from baseline in two-week average reflective Total Nasal Symptom Score (TNSS) [3] | topical activity [4] | adverse effects of long-term use [5] | suppression of the hypothalamic-pituitary axis [6] | hydrolyzing esterase (Paraoxonase 1) | IOP elevation greater than or equal to 10 mmHg, share of subjects (intraocular pressure [7]) [%]
CCCCC(=O)O[C@]1(C(=O)CO)[C@@H](C)C[C@H]2[C@@H]3CCC4=CC(=O)C=C[C@]4(C)[C@@]3(F)[C@@H](O)C[C@@]21C [Betamethasone 17α-valerate (BV) (0.12%), Betamethasone 17α-valerate] | 1.00 | 84.8 | 1.00 | 212 μg/pellet | – | – | – | – | – | – | – | – | – | –
CCC(=O)O[C@]1(C(=O)CCl)[C@@H](C)C[C@H]2[C@@H]3CCC4=CC(=O)C=C[C@]4(C)[C@@]3(F)C(=O)C[C@@]21C [Clobetasone-17α-propi onate (KP) (0.1%), Clobetasone-17α-propi onate] | 29.70 | 2.9 | 19.30 | 11 μg/pellet | – | – | – | – | – | – | – | – | – | –
CCCC(=O)O[C@]1(C(=O)CO)CC[C@H]2[C@@H]3CCC4=CC(=O)CC[C@]4(C)[C@H]3[C@@H](O)C[C@@]21C [Hydrocortisone 17α-butyrate (HB) (0.1%), Hydrocortisone 17α-butyrate] | 0.70 | 121.0 | – | 369 μg/pellet | 0.57 | – | – | – | – | – | – | – | – | –
CCOC(=O)O[C@]1(C(=O)OCCl)CC[C@H]2[C@@H]3CCC4=CC(=O)C=C[C@]4(C)[C@H]3[C@@H](O)C[C@@]21C [Loteprednol Etabonate, chloromethyl 17α-ethoxycarbonyloxy-11β-hydroxyandrosta-1,4-dien-3-one-17β-carboxylate] | – | 178.0 | – | 10,000 μg/pellet | 0.02 | all IOP-s were returned to normal | significantly higher than that of dexamethasone | 0.48 | significantly more efficacious than PLA | very good topical activity | no reported adverse effects | no significant suppression | hydrolyzed by the HDL-connected Paraoxonase 1 | 0.64
